# Measured values taken from patent EP0368756A1, “Dibenzocycloheptene derivatives, process for their preparation and their use as medicaments” (ROUSSEL-UCLAF, priority 1988, dated 1990).
# Tests used:
# [1] = tested on: couche CA₁ de l'hippocampe; experiment: Neuronal protective effect in the hippocampus after stereotaxic quinolinic acid injection; assay type: in vivo; conditions: anaesthetised rat; 20 mg/kg intraperitoneal 30 min before quinolinic acid (5 micrograms) into right hippocampus; cresyl violet histology one week later
# Description: Recherche de l'effet protecteur neuronal dans l'hippocampe.
# L'essai a été réalisé chez le rat anesthésié. Une injection stéréotaxique d'acide quinolinique (5 microgrammes) est réalisée dans l'hippocampe droit. Le produit à étudier (ou le véhicule seul pour le lot d'animaux témoins) est administré par voie intrapéritonéale 30 minutes auparavant.
# Une semaine plus tard, les cerveaux sont prélevés et coupés en tranches fines. Les tranches sont colorées au crésyl violet et photographiées.
# Chez les animaux témoins, l'acide quinolinique détruit la couche CA₁ de l'hippocampe droit tandis que l'hippocampe gauche (contrôle) non injecté, est intacte. L'hippocampe gauche des animaux n'a reçu aucun traitement. Chez les animaux ayant reçu une administration de 20 mg/kg du produit de l'exemple 7, par voie intrapéritonéale, la couche CA₁ de l'hippocampe droit est protégée donc identique à celle de l'hippocampe gauche qui n'a pas reçu d'injection d'acide quinolinique.
# [2] = tested on: convulsions toniques entrainées par le pentétrazol; experiment: Anticonvulsant activity against pentetrazol-induced tonic convulsions; assay type: in vivo, souris; conditions: sc; mouse; pentetrazol 160 mg/kg s.c. given 1 hour after the product; tonic convulsions noted for 30 minutes; read-out: DA₅₀ ou dose qui diminue de 50 % le nombre de convulsions toniques entrainées par le pentétrazol
# Description: Activité anticonvulsivante chez la souris.
# L'essai est réalisé sur des lots de 10 souris. L'agent convulsivant est le pentétrazol, en solution aqueuse à la dose de 160 mg/kg s.c. sous un volume de 0,5 ml/20 g, administré 1 heure après le produit de l'exemple 7. Les animaux sont isolés et les convulsions toniques sont notées pendant 30 minutes.
# La DA₅₀ ou dose qui diminue de 50 % le nombre de convulsions toniques entrainées par le pentétrazol est de 2,3 mg/kg.
smiles,measurement,setting,value
"Nc1ccc2c(c1)C1Cc3ccccc3C2N1 (centres unmarked) [exemple 7, 8-amino 10,11-dihydro 5,10-imino 5H-dibenzo[a,d]-cycloheptène]",effet protecteur neuronal dans l'hippocampe,[1],protégée
same,ED50,[2],2.3 mg/kg
